Test results as given in patent publication US11702414B2, “Thiadiazole IRAK4 inhibitors” (Gilead Sciences, Inc., priority 2018, dated 2023).
Read-outs that look alike come from different tables or passages of the source.

Legend:
IRAK4 enzyme = IRAK4 enzyme (Homo sapiens (Human), UniProt Q9NWZ3); test: IRAK4 Biochemical Assay (TR-FRET, STK1 KinEASE)
TNFα = test: IRAK4 Monocyte TNFα Cell Based Assay; design: species or system human; conditions: human monocytes, second part of Table 2 (compounds 33-343), unit inferred, read-out: EC50MONO TNF HTRF
[1] = second part of Table 2 (compounds 33-343), unit inferred, read-out: IC50 IRAK4-HTBS

Sequence of IRAK4 enzyme (Q9NWZ3 whole entry): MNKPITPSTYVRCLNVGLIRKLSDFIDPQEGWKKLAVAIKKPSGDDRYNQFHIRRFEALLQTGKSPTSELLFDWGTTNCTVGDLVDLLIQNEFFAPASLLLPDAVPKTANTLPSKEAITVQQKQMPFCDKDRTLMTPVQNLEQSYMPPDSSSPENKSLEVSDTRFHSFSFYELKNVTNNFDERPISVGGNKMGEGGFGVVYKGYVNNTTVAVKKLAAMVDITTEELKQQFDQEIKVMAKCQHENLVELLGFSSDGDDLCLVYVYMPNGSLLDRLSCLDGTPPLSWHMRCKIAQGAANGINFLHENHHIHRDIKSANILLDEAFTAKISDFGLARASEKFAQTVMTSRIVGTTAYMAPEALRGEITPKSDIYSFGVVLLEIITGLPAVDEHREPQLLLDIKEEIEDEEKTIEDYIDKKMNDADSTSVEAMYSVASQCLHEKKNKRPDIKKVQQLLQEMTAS

Work on `CC(C)Nc1cc(-c2ccc3cc(C#N)cnn23)ncc1-c1nnc(N2CC3(CCNC3=O)C2)s1` [Example 164, 7-(4-(isopropylamino)-5-(5-(5-oxo-2,6-diazaspiro[3.4]octan-2-yl)-1,3,4-thiadiazol-2-yl)pyridin-2-yl)pyrrolo[1,2-b]pyridazine-3-carbonitrile] yielded an IC50 (IRAK4 enzyme) of 0.55 nM and an EC50 (TNFα; Homo sapiens, Monocyte) of 17.5 nM.

Work on `CC(C)Nc1cc(-c2ccc3cc(C#N)cnn23)ncc1-c1nnc(N2CCC(O)(C(F)(F)F)CC2)s1` [Example 172, 7-(5-(5-(4-hydroxy-4-(trifluoromethyl)piperidin-1-yl)-1,3,4-thiadiazol-2-yl)-4-(isopropylamino)pyridin-2-yl)pyrrolo[1,2-b]pyridazine-3-carbonitrile] yielded an IC50 (IRAK4 enzyme) of 2.99 nM and an EC50 (TNFα; Homo sapiens, Monocyte) of 34.4 nM.

`C[C@H](C#N)Nc1cc(-c2ccc3cc(C#N)cnn23)ncc1-c1nnc(N2CCC(C)(O)CC2)s1` [Example 180, (R)-7-(4-((1-cyanoethyl)amino)-5-(5-(4-hydroxy-4-methylpiperidin-1-yl)-1,3,4-thiadiazol-2-yl)pyridin-2-yl)pyrrolo[1,2-b]pyridazine-3-carbonitrile] was tested, and the IC50 (IRAK4 enzyme) was 0.4 nM and the EC50 (TNFα; Homo sapiens, Monocyte) was 6.8 nM.

`CC1(O)CCN(c2nnc(-c3cnc(-c4ccc5cc(C#N)cnn45)cc3NC3(C)COC3)s2)CC1` [Example 181, 7-(5-(5-(4-hydroxy-4-methylpiperidin-1-yl)-1,3,4-thiadiazol-2-yl)-4-((3-methyloxetan-3-yl)amino)pyridin-2-yl)pyrrolo[1,2-b]pyridazine-3-carbonitrile] showed an IC50 (IRAK4 enzyme) of 0.36 nM and an EC50 (TNFα; Homo sapiens, Monocyte) of 18.4 nM.

`CC(C)Nc1cc(-c2ccc3cc(C#N)cnn23)ncc1-c1nnc(N2CC[C@@](C)(O)[C@@H](F)C2)s1` [Example 186, 7-(5-(5-((3S,4R)-3-fluoro-4-hydroxy-4-methylpiperidin-1-yl)-1,3,4-thiadiazol-2-yl)-4-(isopropylamino)pyridin-2-yl)pyrrolo[1,2-b]pyridazine-3-carbonitrile] gave an IC50 (IRAK4 enzyme) of 0.95 nM and an EC50 (TNFα; Homo sapiens, Monocyte) of 8.4 nM.

In the case of `CC(C)Nc1cc(-c2ccc3cc(C#N)cnn23)ncc1-c1nnc(N2CCC(O)(CF)CC2)s1` [Example 189, 7-(5-(5-(4-(fluoromethyl)-4-hydroxypiperidin-1-yl)-1,3,4-thiadiazol-2-yl)-4-(isopropylamino)pyridin-2-yl)pyrrolo[1,2-b]pyridazine-3-carbonitrile], the IC50 (IRAK4 enzyme) is reported as 1.02 nM and the EC50 (TNFα; Homo sapiens, Monocyte) is reported as 16.3 nM.

Work on `CC(C)Nc1cc(-c2ccc3cc(C#N)cnn23)ncc1-c1nnc(C(=O)N2CC[C@@H](CO)C2)s1` [Example 216, (R)-7-(5-(5-(3-(hydroxymethyl)pyrrolidine-1-carbonyl)-1,3,4-thiadiazol-2-yl)-4-(isopropylamino)pyridin-2-yl)pyrrolo[1,2-b]pyridazine-3-carbonitrile] yielded an IC50 (IRAK4 enzyme) of 0.78 nM and an EC50 (TNFα; Homo sapiens, Monocyte) of 18.1 nM.

With `CC(=O)NC1CC2CC1CC2c1nnc(-c2cnc(-c3ccc4cc(C#N)cnn34)cc2NC(C)C)s1` (stereo not shown) [Example 285, N-(5-(5-(6-(3-cyanopyrrolo[1,2-b]pyridazin-7-yl)-4-(isopropylamino)pyridin-3-yl)-1,3,4-thiadiazol-2-yl)bicyclo[2.2.1]heptan-2-yl)acetamide] the IC50 (IRAK4 enzyme) was 0.78 nM and the EC50 (TNFα; Homo sapiens, Monocyte) was 68 nM.

For `CC(C)Nc1cc(-c2ccc3cc(C#N)cnn23)ncc1-c1nnc(N2CCC(C)(O)CC2)s1` [Example 287, 7-(5-(5-(4-hydroxy-4-methylpiperidin-1-yl)-1,3,4-thiadiazol-2-yl)-4-(isopropylamino)pyridin-2-yl)pyrrolo[1,2-b]pyridazine-3-carbonitrile], the IC50 (IRAK4 enzyme) was 0.86 nM and the EC50 (TNFα; Homo sapiens, Monocyte) was 9.8 nM.

In the case of `CC(=O)N1C[C@@H]2C[C@H]1CN2c1nnc(-c2cnc(-c3ccc4cc(C#N)cnn34)cc2NC(C)C)s1` [Example 302, 7-(5-(5-((1S,4S)-5-acetyl-2,5-diazabicyclo[2.2.1]heptan-2-yl)-1,3,4-thiadiazol-2-yl)-4-(isopropylamino)pyridin-2-yl)pyrrolo[1,2-b]pyridazine-3-carbonitrile], the IC50 (IRAK4 enzyme) is reported as 0.59 nM and the EC50 (TNFα; Homo sapiens, Monocyte) is reported as 5.3 nM.

`CC(C)Nc1cc(-c2ccc3cc(C#N)cnn23)ncc1-c1nnc(N2CCN(C3COC3)CC2)s1` [Example 304, 7-(4-(isopropylamino)-5-(5-(4-(oxetan-3-yl)piperazin-1-yl)-1,3,4-thiadiazol-2-yl)pyridin-2-yl)pyrrolo[1,2-b]pyridazine-3-carbonitrile] was tested, and the IC50 (IRAK4 enzyme) was 0.54 nM and the EC50 (TNFα; Homo sapiens, Monocyte) was 9.8 nM.

“(S)-1-(5-(6-(3-cyanopyrrolo[1,2-b]pyridazin-7-yl)-4-(oxetan-3-ylamino)pyridin-3-yl)-1,3,4-thiadiazol-2-yl)-N-methylpyrrolidine-2-carboxamide [Compound 332]” was tested, and the IC50 (IRAK4 enzyme; [1]) was 1.61 nM and the EC50 (TNFα) was 435 nM.

In the case of “N1-((1R,5S,8s)-3-(5-(6-(3-cyanopyrrolo[1,2-b]pyridazin-7-yl)-4-(isopropylamino)pyridin-3-yl)-1,3,4-thiadiazol-2-yl)-3-azabicyclo[3.2.1]octan-8-yl)-N2-(dimethyl(oxo)-16-sulfanylidene)oxalamide [Example 103]”, the IC50 (IRAK4 enzyme; [1]) is reported as 0.51 nM and the EC50 (TNFα) is reported as 1.4 nM.

“N-((1R,5S,8s)-3-(5-(6-(3-cyanopyrrolo[1,2-b]pyridazin-7-yl)-4-(isopropylamino)pyridin-3-yl)-1,3,4-thiadiazol-2-yl)-3-azabicyclo[3.2.1]octan-8-yl)-2-((dimethyl(oxo)-16-sulfanylidene)amino)acetamide [Example 98]” gave an IC50 (IRAK4 enzyme; [1]) of 1.13 nM and an EC50 (TNFα) of 3.2 nM.
